Measurements taken from patent publication US8399380B2, “Herbicidal composition” (Sumitomo Chemical Company, Limited, priority 2007, dated 2013).

Assays:
Assay type in all cases: in vivo
Design in all cases: key: 0: there is no or little difference in the degree of growth between treated plants and untreated plants at the time of observation; 1: evaluated at 6 levels using the indices of 0 to 5; 2: evaluated at 6 levels using the indices of 0 to 5; 3: evaluated at 6 levels using the indices of 0 to 5; The herbicidal values of “4” and “5” show excellent herbicidal activity; 5: the test plants die completely or their growth is completely inhibited
Solidago altissima = experiment: Test Example 2, foliar application, pot test in greenhouse; conditions: 29 days after treatment
Source text: The herbicidal values of “4” and “5” show excellent herbicidal activity. Each of plastic pots (measuring 12 cm in diameter and 8 cm in height) was filled with upland field soil and Solidago altissima collected from outdoors was transplanted to the plastic pot and grown in a greenhouse for 31 days. Each of the predetermined amounts of a flumioxazin formulation product (trade name: Valor_SX, manufactured by Valent USA Corporation), a sulfosulfuron formulation product (trade name: Monitor, manufactured by Monsanto Company) and a mixture of the flumioxazin formulation product and the sulfosulfuron formulation product was diluted with water, and then the dilution was uniformly sprayed over each plant body from above by a small-sized sprayer. After the treatment, the weeds were grown in a greenhouse for 29 days, and then the herbicidal activity against the weeds was evaluated.

Lolium multiflorum = experiment: Test Example 1, soil application, pot test in greenhouse; conditions: 34 days after application
Source text: (§1) The herbicidal values of “4” and “5” show excellent herbicidal activity. Each of plastic pots (measuring 22 cm in diameter and 19 cm in height) was filled with upland field soil and sown with Lolium multiflorum and Alopecurus myosuroides. Each of the predetermined amounts of a flumioxazin formulation product (trade name: Valor_SX, manufactured by Valent USA Corporation), a sulfosulfuron formulation product (trade name: Monitor, manufactured by Monsanto Company) and a mixture of the flumioxazin formulation product and the sulfosulfuron formulation product was diluted with water, and then the dilution was uniformly sprayed over the soil surface by a small-sized sprayer. After the treatment, the weeds were grown in a greenhouse, and the herbicidal activity against the weeds was evaluated at 34 days after application.

Alopecurus myosuroides = experiment: as above; conditions: 34 days after application
Source text: as §1

Compound	Herbicidal activity Solidago altissima (Solidago altissima; active ingredient 60 g/ha)	Herbicidal activity Solidago altissima (Solidago altissima; active ingredient 120 g/ha)	Herbicidal activity Lolium multiflorum (Lolium multiflorum; active ingredient 10 g/ha)	Herbicidal activity Lolium multiflorum (Lolium multiflorum; active ingredient 20 g/ha)	Herbicidal activity Alopecurus myosuroides (Alopecurus myosuroides; active ingredient 10 g/ha)	Herbicidal activity Alopecurus myosuroides (Alopecurus myosuroides; active ingredient 20 g/ha)	Herbicidal activity Solidago altissima (Solidago altissima; active ingredient 40 g/ha)	Herbicidal activity Lolium multiflorum (Lolium multiflorum; active ingredient 40 g/ha)	Herbicidal activity Alopecurus myosuroides (Alopecurus myosuroides; active ingredient 40 g/ha)
C#CCN1C(=O)COc2cc(F)c(N3C(=O)C4=C(CCCC4)C3=O)cc21 [Flumioxazin, N-(7-fluoro-3,4-dihydro-3-oxo-4-prop-2-ynyl-2H-1,4-benzeoxazin-6-yl)cyclohex-1-ene-1,2-dicarboxamide]	0	1	0	1	1	4			
CCS(=O)(=O)c1nc2ccccn2c1S(=O)(=O)NC(=O)Nc1nc(OC)cc(OC)n1 [Sulfosulfuron, 1-(4,6-dimethoxypyrimidin-2-yl)-3-(2-ethylsulfonylimidazo[1,2-a]pyridin-3-ylsulfonyl)urea]				0		0	2	0	2
